In publication PMC12073159, “Inhibition Mechanism of Mulberry Prenylated Flavonoids Sanggenone D/Kuwanon G Against α-Glucosidase and the Regulation of Glucose via GLUT4 Pathway” (Nutrients, 2025):
Entries after “also recorded” stand apart in the source; their conditions may differ.

Experiments:
[1] = biological target: α-glucosidase; assay: α-glucosidase inhibitory activity (p-NPG, absorbance at 405 nm); format: biochemical; settings: 1 U/mL α-glucosidase, pH 6.8, 37 °C, p-NPG substrate; read-out: IC50 (semi-inhibitory concentration)
Description: Subsequently, 50 μL of 2 mmol/L p-NPG was added, and the mixture was incubated at 37 °C for 20 min. Finally, 50 μL of 1 mol/L Na2CO3 was added to an ice bath for 5 min to terminate the reaction. The absorbance was measured at 405 nm, and the α-glucosidase inhibitory activity was calculated according to Formula (1). All experiments were performed in triplicate.(1) Inhibition rate of enzyme activity/%=(1−Aa−Ab/Ac−Ad)×100%
Aa is the absorbance of the sample group, Ab is the absorbance of the sample background group (equal volume of buffer instead of enzyme solution), Ac is the absorbance of the control group (equal volume of buffer instead of the sample solution), and Ad is the absorbance of the control background group (equal volume of buffer instead of the sample and enzyme solution).

[2] = test system: α-glucosidase; assay: Inhibition kinetics assay (Lineweaver–Burk); format: biochemical; settings: for Inhibition type: Lineweaver–Burk plots; for Ki: inhibitory constant on α-glucosidase
Description: The inhibition assay of α-glucosidase was adapted from MORTEZA, with some modification. A total of 50 μL of α-glucosidase solution (1 U/mL) was added to 96-well plates, and 50 μL of sample solution with different concentrations (sanggenone D: 0, 20, 100, 200 μg/mL; kuwanon G: 0, 10, 20, 40 μg/mL) was incubated at 37 °C for 10 min. Subsequently, different concentrations of pNPG solution were added and incubated at 37 °C for 20 min. Finally, sodium carbonate solution (50 μL, […]) was added to terminate the reaction. Colorimetry was performed at 405 nm using a spectrophotometer to determine the change in absorbance of the enzymatic reaction system. The reversible inhibitory effect types of sanggenone D and kuwanon G on the enzyme were analyzed by the Lineweaver–Burk equation. The relevant parameters were calculated using Formulas (2)–(4).
In the formula, V represents the reaction rate, and Vm represents the maximum reaction rate. [I] is the concentration of the compound sample, and [S] is the substrate concentration. Km represents the Michaelis constant, and KI and KIS represent the inhibitory constants of the compound sample on α-glucosidase and the α-glucosidase–substrate complex, respectively.

[3] = test system: α-glucosidase; assay: Fluorescence quenching spectroscopy (Stern–Volmer); format: binding
Description: A total of 100 μL of 1 U/mL α-glucosidase extract was mixed with […] of different concentrations (sanggenone D: 0, 1, 5, 10, 20, 50, 60 μg/mL; kuwanon G: 0, 1, 5, 10, 20, 40, 60 μg/mL) and incubated at three temperatures of 298 K, 304 K, and 310 K for 5 min. Then, the mixture were scanned with fluorescence spectroscopy (SpectraMax i3x, Molecular Devices, LLC., San Jose, CA, USA). The excitation wavelength was set at 280 nm, the emission wavelength was 300–500 nm, and the widths of both excitation and emission slits were 5 nm. The fluorescence quenching parameters were calculated according to the following equations.
Stern–Volmer dynamic collision quenching equation:(5) F0/F=1+KSVQ=1+Kqτ0Q (6) lgF0−F/F=lgKa+nlg[Q]
F0 and F represent the fluorescence intensity peaks of α-glucosidase without and with the compound, respectively; [Q] is the sample concentration; and τ0 is the protein’s average lifetime (10^−8 s).

[4] = test system: HepG2 cells; assay: CCK-8 toxicity test of HepG2 cells; format: cell-based, human; settings: 24 h
Description: DMEM complete medium was configured with 88% DMEM high glucose medium, 10% fetal bovine serum, 1% double antibodies, and 1% non-essential amino acids. HepG2 cells were seeded in the complete medium and incubated at 37 °C with 5% CO2. When the cell confluence grew to 80–90%, the passage was carried out at a ratio of 1:3. According to the method of Cao et al., a hyperglycemic model was established through insulin induction. HepG2 cells in the logarithmic growth stage were inoculated with 4 × 10^4 cells per well in a 96-well plate and cultured at 37 °C and 5% carbon dioxide for 24 h. After the cell coverage reached 80%, 100 µL of sanggenone D and kuwanon G with different concentrations were added for 24 h. Then, 100 µL CCK-8/complete culture solution (1:9) was added to each well, and the absorbance at 450 nm was measured by an enzymoleter after 1 h of culture. The toxicity test was conducted in triplicate.(8) Cell survival rate (%)=Asample/Acontrol×100%

[5] = test system: HepG2 cells; assay: Cellular glucose, TC and TG content in high-glucose model HepG2 cells; format: cell-based, human; settings: 20, 80 μg/mL, 24 h, compared with the model group
Description: DMEM complete medium was configured with 88% DMEM high glucose medium, 10% fetal bovine serum, 1% double antibodies, and 1% non-essential amino acids. HepG2 cells were seeded in the complete medium and incubated at 37 °C with 5% CO2. When the cell confluence grew to 80–90%, the passage was carried out at a ratio of 1:3. According to the method of Cao et al., a hyperglycemic model was established through insulin induction.
The sample concentration (sanggenone D: 20, 80 μg/mL; kuwanon G: 20, 80 μg/mL) used in this experiment was determined by a CCK8 experiment. HepG2 cells were inoculated with 2 × 10^5 in a 12-well plate and cultured for 24 h. After being attached to the well, the samples containing different concentrations were replaced and the cells were treated for 24 h. The relevant indexes were determined by the kit method according to the instructions of the manufacturer. Each measurement was performed in triplicate.

[6] = test system: GLUT4; assay: Western blotting, GLUT4 expression in HepG2 cells; format: cell-based, human; settings: compared with the model group
Description: The tissue proteins were extracted with cold total protein extraction buffer (TPEB) [98% RIPA buffer (Solarbio, Beijing, China), 1% phosphatase inhibitor mix (Sangon Biotech, Shanghai, China), and 1% protease inhibitor mix (Cell Signaling Technology, Danvers, MA, USA)], and protein concentration was determined by the bicinchoninic acid assay (BCA) method. A total of 20 μg of protein samples were separated by SDS-PAGE and transferred to a polyvinylidene difluoride (PVDF) membrane. The membrane was washed with PBST for 5 min, then incubated with 5% skim milk at room temperature for 1 h. Subsequently, the membrane was cleaned with PBST five times for 5 min and incubated overnight at 4 °C with the primary antibodies [ACC (Zenbio #381131; 1:750 dilution), AMPK (Zenbio #380431; 1:500 dilution), p-AMPK (Zenbio #340763; 1:750 dilution), CPT-1 (proteintech #15184-1-AP 1:3000 dilution), and GLUT4 (Zenbio #347063; 1:1000 dilution)]. Finally, the membrane was incubated with the secondary antibody (Abmart #T40104, 1:3000 dilution) at room temperature for 1 h. Chemiluminescent visualization of the protein bands was achieved using an ECL system (Millipore, Burlington, MA, USA) and documented with Image Lab software for PC Version 6.1 (Bio-Rad, South Granville, NSW, Australia). Densitometric analysis of the resulting bands was conducted using ImageJ 2 software.

[7] = test system: p-AMPK; assay: Western blotting, p-AMPK in HepG2 cells; format: cell-based, human; settings: compared with the model group
[8] = test system: CPT-1; assay: Western blotting, CPT-1 expression in HepG2 cells; format: cell-based, human
[9] = biological target: α-glucosidase; settings: cited from earlier work

IC50 [1] [µM] | Ki [2] [µM] | KSV ([3]; 298 K) | Ka ([3]; 298 K) | Kq ([3]; 298 K) | KSV ([3]; 304 K) | Ka ([3]; 304 K) | Kq ([3]; 304 K) | KSV ([3]; 310 K) | Ka ([3]; 310 K) | Kq ([3]; 310 K) | Structure (SMILES) | Inhibition type [2] | Glucose content in HepG2 cells [5] | TC content in HepG2 cells [5] | TG content in HepG2 cells [5] | GLUT4 expression [6] | Expression of CPT-1 [8] | further results
38.3 | 83.5 | 5.41 ± 0.01 ×10^4 L/mol | 36.85 ± 0.17 ×10^3 L/mol | 5.41 ± 0.01 ×10^12 L/mol | 4.91 ± 0.03 ×10^4 L/mol | 194.98 ± 0.42 ×10^3 L/mol | 4.91 ± 0.03 ×10^12 L/mol | 3.35 ± 0.01 ×10^4 L/mol | 1984.27 ± 0.33 ×10^3 L/mol | 3.35 ± 0.01 ×10^12 L/mol | CC(C)=CCc1c(-c2ccc(O)cc2O)oc2c([C@H]3C=C(C)C[C@@H](c4ccc(O)cc4O)[C@@H]3C(=O)c3ccc(O)cc3O)c(O)cc(O)c2c1=O [kuwanon G] | competitive inhibition type | significantly reduced | significantly reduced | significantly reduced | notably up-regulated | significantly upregulated | Survival percentage of HepG2 cells ([4]; concentration less than 80 μg/mL): above 90%; p-AMPK [7]: significantly promoted
– | – | – | – | – | – | – | – | – | – | – | COc1cc(/C=C/C(=O)O)ccc1O [ferulic acid] | – | – | – | – | – | – | IC50 for α-glucosidase [9]: 866 µg/mL
45.1 | 253 | 3.90 ± 0.04 ×10^4 L/mol | 7.28 ± 0.21 ×10^3 L/mol | 3.90 ± 0.04 ×10^12 L/mol | 3.24 ± 0.02 ×10^4 L/mol | 16.73 ± 0.14 ×10^3 L/mol | 3.24 ±0.02 ×10^12 L/mol | 2.56 ± 0.02 ×10^4 L/mol | 180.18 ± 0.30 ×10^3 L/mol | 2.56 ±0.02 ×10^12 L/mol | CC(C)=CCC12Oc3cc(O)ccc3C1(O)Oc1cc(O)c(C3C=C(C)CC(c4ccc(O)cc4O)C3C(=O)c3ccc(O)cc3O)c(O)c1C2=O (centres unmarked) [sanggenone D] | non-competition/anti-competition mixed inhibition; also recorded: mixed inhibition of noncompetitive and anticompetitive | significantly reduced | significantly reduced | significantly reduced | notably up-regulated | significantly upregulated | Survival percentage of HepG2 cells ([4]; concentration less than 100 μg/mL): above 90%
